Measurements: article PMC11542717 (ADMET & DMPK, 2024)
Where two headings read alike, the source gives them in different places.

Key:
[1] = tested on: water flea (Daphnia magna); conditions: 48 h static, immobilization; ECHA database, converted to -log M; cited from earlier work
fish species = conditions: 96 h static; ECHA database, mg/L converted to -log M; cited from earlier work
[2] = assay type: physicochemical; conditions: IAM PC.DD2 column, pH 7.4, acetonitrile gradient, UV filters
[3] = cited from earlier work; for CHIIAM (predetermined): calibration set, established by isocratic measurement; for CHIIAM: pharmaceuticals used for model construction (training set)

SMILES	pEC50 water flea (Daphnia magna), Experimental [1]	CHIIAM (chromatographic phospholipid binding) [2]	CHIIAM [3]	further results
Nc1ccc(C(=O)O)cc1 [4-Aminobenzoic Acid, 4-aminobenzoic acid]	3.26	3.30		pLC50 fish, Experimental (fish species): 2.12; CHIIAM (chromatographic phospholipid binding) ([2]; listed as aminobenzoic acid): < 20
CC(=O)c1ccccc1 [Acetophenone]				CHIIAM (predetermined) [3]: 17.2
CN(C)CCC=C1c2ccccc2CCc2ccccc21 [Amitriptyline]			55.3	
CC1(C)S[C@@H]2[C@H](NC(=O)[C@H](N)c3ccccc3)C(=O)N2[C@H]1C(=O)O [Ampicillin]			10.5	
COc1ccc(C(=O)CC(=O)c2ccc(C(C)(C)C)cc2)cc1 [Avobenzone, avobenzone]	5.20	53.4		CHIIAM (chromatographic phospholipid binding) ([2]; listed as avobenzone): > 45
CCCC(=O)c1ccccc1 [Butyrophenone]				CHIIAM (predetermined) [3]: 32.0
NC(=O)N1c2ccccc2C=Cc2ccccc21 [Carbamazepine]			26.9	
O=C(O)Cc1ccccc1Nc1c(Cl)cccc1Cl [Diclofenac]			34.1	
COc1ccc([C@@H]2Sc3ccccc3N(CCN(C)C)C(=O)[C@@H]2OC(C)=O)cc1 [Diltiazem]			42.0	
COc1ccc(C(=O)c2ccccc2O)c(O)c1 [Dioxybenzone, dioxybenzone]	4.76	39.9		
O=S(=O)(O)c1ccc2[nH]c(-c3ccccc3)nc2c1 [Ensulizole, ensulizole]	3.44	13.2		pLC50 fish, Experimental (fish species): 2.91; CHIIAM (chromatographic phospholipid binding) ([2]; listed as ensulizole): < 20
Cc1ccc(C)c(OCCCC(C)(C)C(=O)O)c1 [Gemfibrozil]			33.7	
CCCCCCC(=O)c1ccccc1 [Heptanophenone]				CHIIAM (predetermined) [3]: 45.7
CCCCCC(=O)c1ccccc1 [Hexanophenone]				CHIIAM (predetermined) [3]: 41.8
CC1CC(OC(=O)c2ccccc2O)CC(C)(C)C1 (centres unmarked) [Homosalate, homosalate]		56.8		CHIIAM (chromatographic phospholipid binding) ([2]; listed as homosalate): > 45
CC1CCC(C(C)C)C(OC(=O)c2ccccc2N)C1 (centres unmarked) [Meradimate, meradimate]	5.24	56.9		pLC50 fish, Experimental (fish species): 4.48; CHIIAM (chromatographic phospholipid binding) ([2]; listed as meradimate): > 45
COCCc1ccc(OCC(O)CNC(C)C)cc1 (centres unmarked) [Metoprolol]			35.4	

SMILES	pEC50 water flea (Daphnia magna), Experimental [1]	CHIIAM (chromatographic phospholipid binding) [2]	CHIIAM [3]	further results
Cc1ncc([N+](=O)[O-])n1CCO [Metronidazole]			-4.81	
CCCCCCCC(=O)c1ccccc1 [Octanophenone]				CHIIAM (predetermined) [3]: 49.4
CCCCC(CC)COC(=O)C=Cc1ccc(OC)cc1 (centres unmarked) [Octinoxate, octinoxate]	5.03	54.2		CHIIAM (chromatographic phospholipid binding) ([2]; listed as octinoxate): > 45
CCCCC(CC)COC(=O)c1ccccc1O (centres unmarked) [Octisalate, octisalate]	5.58	55.1		pLC50 fish, Experimental (fish species): 4.40; CHIIAM (chromatographic phospholipid binding) ([2]; listed as octisalate): > 45
CCCCC(CC)COC(=O)C(C#N)=C(c1ccccc1)c1ccccc1 (centres unmarked) [Octocrylene, octocrylene]	5.06	60.0		pLC50 fish, Experimental (fish species): 5.65; CHIIAM (chromatographic phospholipid binding) ([2]; listed as octocrylene): > 45
CC1COc2c(N3CCN(C)CC3)c(F)cc3c(=O)c(C(=O)O)cn1c23 (centres unmarked) [Ofloxacin]			28.9	
COc1ccc(C(=O)c2ccccc2)c(O)c1 [Oxybenzone, oxybenzone]	4.92	40.8		pLC50 fish, Experimental (fish species): 4.78
CCCCC(CC)COC(=O)c1ccc(N(C)C)cc1 (centres unmarked) [Padimate O, padimate O]	4.69	53.6		pLC50 fish, Experimental (fish species): 4.85
CCC(=O)c1ccccc1 [Propiophenone]				CHIIAM (predetermined) [3]: 25.9
CCc1nc(N)nc(N)c1-c1ccc(Cl)cc1 [Pyrimethamine]			38.2	
Nc1ccc(S(=O)(=O)Nc2ccc(Cl)nn2)cc1 [Sulfachlorpyridazine]			7.67	
COc1cc(NS(=O)(=O)c2ccc(N)cc2)nc(OC)n1 [Sulfadimethoxine]			13.8	
COc1ccc(NS(=O)(=O)c2ccc(N)cc2)nn1 [Sulfamethoxypyridazine]			10.9	
Nc1ccc(S(=O)(=O)Nc2nccs2)cc1 [Sulfathiazole]			11.0	
COc1cc(O)c(C(=O)c2ccccc2)cc1S(=O)(=O)O [Sulisobenzone, sulisobenzone]	3.79	14.3		pLC50 fish, Experimental (fish species): 2.69; CHIIAM (chromatographic phospholipid binding) ([2]; listed as sulisobenzone): < 20
Cn1c(=O)c2[nH]cnc2n(C)c1=O [Theophylline]			1.80	
CCCCC(=O)c1ccccc1 [Valerophenone]				CHIIAM (predetermined) [3]: 37.3
